IC50 data for one compound are collected here from ChEMBL document CHEMBL1127274, “Evaluation of (2S,4S)/(2R,4R) and (2S,4R)/(2R,4S) 6,6-N,N-dimethyl-2-methyl-2-oxo-1,3-dioxa-4-hexadecyl-6,aza-2-phosphacyclooctane bromide as inhibitors for protein kinase C, carnitine octanoyltransferase, and carnitine palmitoyltransferase” (Bioorg Med Chem Lett, 1994).

For test [1], the target named is T1, Carnitine O-palmitoyltransferase 2, mitochondrial (Homo sapiens, UniProt P23786).
T1 sequence (P23786 whole entry): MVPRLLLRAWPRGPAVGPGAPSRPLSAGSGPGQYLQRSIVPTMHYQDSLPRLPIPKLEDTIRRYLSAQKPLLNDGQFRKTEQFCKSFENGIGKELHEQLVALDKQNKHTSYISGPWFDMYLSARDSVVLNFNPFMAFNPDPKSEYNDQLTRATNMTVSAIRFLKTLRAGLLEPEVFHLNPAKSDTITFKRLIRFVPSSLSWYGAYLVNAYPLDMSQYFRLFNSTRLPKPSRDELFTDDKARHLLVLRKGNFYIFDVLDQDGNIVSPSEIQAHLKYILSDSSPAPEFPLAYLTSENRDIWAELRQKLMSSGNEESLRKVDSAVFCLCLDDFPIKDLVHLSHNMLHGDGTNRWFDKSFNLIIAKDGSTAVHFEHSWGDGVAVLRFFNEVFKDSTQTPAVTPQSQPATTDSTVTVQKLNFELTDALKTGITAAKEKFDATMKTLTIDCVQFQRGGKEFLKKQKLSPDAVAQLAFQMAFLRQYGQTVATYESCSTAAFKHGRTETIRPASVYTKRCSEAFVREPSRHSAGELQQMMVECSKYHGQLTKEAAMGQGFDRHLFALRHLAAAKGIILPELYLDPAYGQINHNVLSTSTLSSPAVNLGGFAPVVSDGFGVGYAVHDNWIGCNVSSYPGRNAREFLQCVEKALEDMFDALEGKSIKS
In words: Inhibitory potency against Carnitine Palmitoyltransferase (CPT-II); Range = 32-235 uM.

Test [2] has as its target T2, Peroxisomal carnitine O-octanoyltransferase (Homo sapiens, UniProt Q9UKG9).
T2 sequence (Q9UKG9 whole entry): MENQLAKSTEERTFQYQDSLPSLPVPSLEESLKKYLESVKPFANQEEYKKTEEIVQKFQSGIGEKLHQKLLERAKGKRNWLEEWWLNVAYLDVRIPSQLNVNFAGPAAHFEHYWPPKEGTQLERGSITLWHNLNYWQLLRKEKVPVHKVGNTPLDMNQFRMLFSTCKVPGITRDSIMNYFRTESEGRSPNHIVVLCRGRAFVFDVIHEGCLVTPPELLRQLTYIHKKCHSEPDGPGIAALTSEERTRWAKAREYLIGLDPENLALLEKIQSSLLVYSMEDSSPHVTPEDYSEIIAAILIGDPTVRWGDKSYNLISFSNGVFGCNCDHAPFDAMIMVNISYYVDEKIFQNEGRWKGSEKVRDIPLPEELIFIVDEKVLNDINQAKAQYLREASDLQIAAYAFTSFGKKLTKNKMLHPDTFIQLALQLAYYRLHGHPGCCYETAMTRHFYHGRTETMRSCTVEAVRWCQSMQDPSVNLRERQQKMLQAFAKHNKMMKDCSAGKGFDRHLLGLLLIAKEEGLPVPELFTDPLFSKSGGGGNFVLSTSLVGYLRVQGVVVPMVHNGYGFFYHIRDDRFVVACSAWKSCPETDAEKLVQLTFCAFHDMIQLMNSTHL
In words: Inhibitory potency against carnitine octanoyltransferase (COT); Range = 1300-4000 uM.

Broadly, the IC50 is the point on the concentration scale where inhibition reaches its midpoint. With `CCCCCCCCCCCCCCCC[C@@]1(O)C[N+](C)(C)CCO1`, the results for the IC50 in test [1] and in test [2] were 235 µM and 4000 µM, respectively.
